For data set [1], the system named is patients with unresponsive metastatic carcinoma. Particulars: in vivo.
On the set-up of data set [2]: method as in Van't Riet, personal communication. The note with it: rats; ref Van't Riet, personal communication; cited from earlier work.
Data set [3] has as its system pools of deoxyribonucleotides. Particulars: cited from earlier work.
A further data set addresses ribonucleotide reductase. Particulars: cited from earlier work.
For another data set, the system named is murine tumours. Also on record: method as in Elford et al., 1984. The note with it: ref Elford et al., 1984; cited from earlier work.
Another data set relates to a number of cell lines. The note with it: continuous drug exposure, no reference given; cited from earlier work.
In a further data set the test system is mice. Particulars: single dose, ref CRC Sponsored Toxicity Report, 1984; cited from earlier work.
The subject of the next data set is NCI tumour panel. On the set-up: method as in Elford & Van't Riet, 1985. Particulars: ref Elford & Van't Riet, 1985; cited from earlier work.
The subject of a further data set is L1210 leukaemia. On the set-up: method as in Van't Riet et al., 1979. Particulars: L1210 leukaemia bearing female mice; ref Van't Riet et al., 1979; cited from earlier work.
For data set [4] the following is noted: in vivo.
A further data set has as its system metastatic carcinoma. The data set is described as follows: Clinical response in the phase 1 study. Format: in vivo, human. Particulars: 34 patients, any dosage level.

Results on two compounds are retold here after paper PMC2246479, “A phase 1 and pharmacokinetic study of didox: a ribonucleotide reductase inhibitor” (British Journal of Cancer, 1988).

pIC50: −log10 of the molar value.

In the case of `O=C(NO)c1ccc(O)c(O)c1` [didox, N,3-4 trihydroxy-benzamide], in data set [1] (human, iv), the “Maximum tolerated dose / dose that can be safely given” value is recorded as 6 g m-2. Moreover, in data set [1], the “Patients with severe diarrhoea (grade 4)” value stood at 2 patients and the “Total white cell count after didox” value is reported as > 20 x 109 1-. Further, in data set [1] (iv), the “Dose above which severe nausea and vomiting almost universal” value was “above 7 g m- 2”; the “Dose at which dose limiting toxicity was encountered” value turned out to be 7.5 g m-2; the “Dose at which minor toxicity was initially noted” value was 2,304 mg m 2. Further, in [2], the Major metabolites formed is 3,4-dihydroxybenzamide, 3-hydroxy-4-methoxybenzo- hydroxamic acid and 3-methoxy-4-hydroxy- benzohydroxamic acid. Moreover, the “Depletion of the pools of all deoxyribonucleotides” value in [3] (ref Elford et al., 1981) was “over 50%”. Further, the pIC50 at ribonucleotide reductase (enzyme study, no reference given, read-out: Concentration causing 50% inhibition of the target enzyme) is 4.52. Also, in the data set on ribonucleotide reductase (ref Elford et al., 1979), the “Inhibition of ribonucleotide reductase compared to hydroxyurea” value was “greater inhibition”. The “Interaction with doxorubicin and cyclophosphamide” value in the data set on murine tumours is “act synergistically”. In addition, the “Growth inhibitory concentration in vitro” value in the data set on a number of cell lines is reported as “up to 100 uM”. For the same compound, the LD10 in the data set on mice is given as 643 mg/kg. For the same compound, in the data set with NCI tumour panel, the “Activity in the NCI tumour panel” value is “active”. In the data set on L1210 leukaemia, the Anti-neoplastic activity entry is reported as “anti-neoplastic activity”. Further, in data set [4] (human), the “Steady state volume of distribution” value is 27.9 ± 6.2 lm-2, the “Total body Clearance” value came to 0.71 ± 0.19 Imin- 1 m-2, the t1/2 alpha was determined as 5.2 min and the t1/2 beta stood at 41.3 min. Also, in data set [4] (human, iv), the “Time to peak level of didox after injection” value was no more than 5 min. In addition, in data set [4] (iv), the “Administered dose excreted unchanged in the urine” value is recorded as “Less than 10%” and the “Time within which the majority of urinary excretion occurred” value was no more than 6 h. In addition, the Clinical responses result with metastatic carcinoma is reported as “No clinical responses”.
With `NC(=O)NO` [hydroxyurea, reference compound], in [3] (ref Thelander & Reichard 1979), the Deoxyribonucleotide pools depleted result was “only depleted pools of dGTP and dATP”. Further, the “Inhibition of ribonucleotide reductase in vitro” value with ribonucleotide reductase (ref Elford, 1968) was “weak inhibitor”.
